Data on one compound can be found in BindingDB's records for doi:10.1021/jm00154a024 (1986).

The structures appear in SMILES notation.

A short description of the assay: The compound was tested for the inhibition of alanine racemase from Pseudomonas aeruginosa.

Compound `CCC(=N)P(=O)(O)O` displayed an inhibition constant (Ki) of 8.5 mM.
